The source of these data is publication PMC8244818 (Journal of medicinal chemistry, 2021).

One series relates to Plasmodium yoelii. Format: in vivo. As to conditions: P. yoelii, CF1 mice, oral gavage in PEG-400, 5 mg/kg × 4 days.
For series [1] the following is noted: cited from earlier work.
The conditions of series [2]: ref 34 (2), ref 35 (6); cited from earlier work.

With `COC1=CC2=N/C1=C\NCC/C=C/CCCCCCCCc1ccc2[nH]1.Cl` [(E/Z)-7, geometric isomers of Tambjamine MYP1], in the series on Plasmodium yoelii, the “in vivo %parasitemia reduction on day 5 at 5 mg/kg/4d” value (“in vivo %parasitemia reduction” for short) is reported as “ineffective”.
As for `CCCCCc1cc(/C=C2\N=C(c3ccc(Cc4ccc(O)cc4)[nH]3)C=C2OC)[nH]c1C.Cl` [Compound 2, 4-((4’-Methoxy-5’-((5-methyl-4-pentyl-1H-pyrrol-2-yl)methylene)-1H,5’H-[2,2’-bipyrrol]-5-yl)methyl)phenol], in series [1], the cytotoxicity activity entry was “good”. Besides, the antimicrobial activity entry in series [2] is reported as “good”. Also, in the series with Plasmodium yoelii, the “in vivo %parasitemia reduction” value was “did not show efficacy”.
As to `CCCCc1cc(/C=C2\N=C(c3ccc(Cc4ccc(O)cc4)[nH]3)C=C2OC)[nH]c1C.Cl` [Compound 3, 4-((5’-((4-Butyl-5-methyl-1H-pyrrol-2-yl)methylene)-4’-methoxy-1H,5’H-[2,2’-bipyrrol]-5-yl)methyl)phenol], the “in vivo %parasitemia reduction” value with Plasmodium yoelii is given as “did not show efficacy”.
As to `COC1=CC(c2ccc[nH]2)=N/C1=C\c1cc(CCCCC(C)C)c(C)[nH]1.Cl` [Compound 6, Isoheptylprodigiosin], the antimicrobial activity entry in series [2] was “moderate”.
Turning to `C=CCCCCCCCCc1ccc(C2=N/C(=C\NCCC=C)C(OC)=C2)[nH]1.Cl` [Compound 39, N-((5-(dec-9-en-1-yl)-4’-methoxy-1H,5’H-[2,2’-bipyrrol]-5’-ylidene)methyl)but-3-en-1-amine], in the series on Plasmodium yoelii, the “in vivo %parasitemia reduction” value is on record as “ineffective”.
